Columns and labels:
[1] = Photostability study of 3% formulation (post-irradiation filtering parameters); settings: 3% in formulation; for % SPFeff (residual percentage of SPF in vitro): SPF after/before irradiation × 100; for % UVA-PFeff (residual percentage of UVA-PF): UVA-PF after/before irradiation × 100; for SPF / UVA/UVB / UVAPF / λc: post irradiation
Description: To outline the efficacy and safety profile of a sunscreen formulation, it is essential to provide data relating to photostability. It is possible to provide photodegradation data by recording, pre- and post-irradiation, the transmittance of PMMA plates with finger-coat formulations subjected to a dose of UVA capable of causing erythema, according to the criteria of Garoli et al.. By means of Equations (2) and (3) it was possible to evaluate the residual percentage of SPF in vitro and of UVA-PF for all the prepared formulations. Of greatest interest are the values obtained for the derivatives BZTcin2 and BZTcin4.
To determine the photostability, the previously reported method was adopted, which consists in preparing each plate as mentioned above and subjecting it to solar irradiation quantified as the minimum dose of UVA equivalent to an effective radiant exposure of erythema. The protocol stipulates that, before and after exposure to sunlight, the transmission of the sun protection layer in the range of 290–400 nm is recorded.
Using Equations (2) and (3) below, the residual percentage of SPF in vitro (% SPFeff.) and UVA-PF (% UVA-PFeff.) have been obtained, which, if greater than or equal to 80, can classify a filter as photostable. %SPFeff. = in vitro SPFafter/in vitro SPFbefore × 100(2) %UVA − PFeff. = UVA − PFafter/UVA − PFbefore × 100(3)

Colo-38 cell line = assay: Pro-apoptotic activity (Annexin V method), Colo-38; assay type: cell-based, human; settings: for Dead (%) / Early Apoptosis (%) / Late Apoptosis (%): 24 h; for total apoptosis: Colo-38, 24 h, concentrations approaching IC50
Method: The Annexin V assay was conducted at two concentrations approaching IC50 values toward the selected cell lines reported in Table 3. The complete set of data is reported in Table 4, while representative data from the analysis of the corresponding Muse Analyzer plots are shown in Figure 2.
Apoptosis assays were performed with a Muse® Cell Analyzer instrument (Merck Millipore, Burlington, MA, USA) and the kit on Colo-38 and HaCat cell lines according to the manufacturer’s protocol. Cells were treated and exposed to the compounds for 24 h. This procedure is based on the detection of PS (PhosphatidylSerine) exposed on the external membrane of apoptotic cells by Annexin V. Four populations of cells can be distinguished using this assay: live, early apoptotic, late apoptotic and dead cells. The MUSE cell analyzer can discriminate “early” from “late” apoptosis since “early apoptotic cells” are Annexin V-positive and 7-AAD-negative, while “late apoptotic cells” are positive to both Annexin V and 7-AAD (7-aminoactinomycin D). The DNA intercalating molecule 7AAD (7-aminoactinomycin D) is used as an indicator of cell membrane integrity, since it binds DNA only in cells undergoing late apoptosis/death stage, when the membrane integrity is lost. Muse Annexin V and Dead Cell reagent were used to dilute the cells (1:1). After 20 min of incubation between cell samples and the kit at room temperature in the dark, the samples were analyzed using 0.01% Triton X-100 as positive control. The data were acquired and recorded using the Annexin V and Dead Cell software module (Millipore, Billerica, MA, USA).

[2] = UV spectra in solution (MeOH-DMSO): λmax and molar extinction coefficient; assay type: physicochemical; settings: for ε (molar extinction coefficient): at λmax, Lambert-Beer equation, in M-1 cm-1 (unit assumed); for λmax: solution in MeOH-DMSO, 290–400 nm
Method: We next investigated the protective potential against UV radiation of each compound. Specifically, in vitro tests were conducted to determine the parameters related to absorption in the UV spectrum and those fundamental to the relative evaluation of the filtering potential and thus candidature as possible UV sunscreen ingredients of the candidates under examination, including λ critical and SPF (sun protection factor). Since the SPF is correlated to the UV quantitative absorption of the substances, the wavelength of maximum absorption (λmax) and the molar extinction coefficient (ε) of the derivatives in solution (MeOH-DMSO) were evaluated (Figures S1 and S2, Supplementary Materials). The UV spectra of the compounds BZTidr1–6 and BZTcin1–5 were recorded in the UVA-UVB range (290–400 nm) to evaluate their profile and compare it to that of the PBSA, a commercial UVB filter that has a λmax of 302 nm. After this peak, the absorbance of PBSA drops, reaching almost zero in the 325 nm range, and thus not providing absorption in the UVA region.
Once the λmax of each derivative was established, the molar extinction coefficient ε was calculated by applying the Lambert-Beer equation (Table S1, Supplementary Materials): the higher this value, the greater the ability of the compound under examination to absorb UV radiation. […] The excellent values of BZTidr1, BZTidr2 and BZTidr3 are ascribed to the aforementioned hyperchromic shift. In regard to the BZTcin1–5 series, the molar extinction coefficients calculated were very high, and the best values were those of BZTcin1, BZTcin2 and BZTcin3, also attributable to the hyperchromic shift of the absorption spectra. For both series, the excellent absorption capacity of ultraviolet radiation can be traced back to the high π-type conjugation that characterizes them.

[3] = In vitro filtering parameters of O/W sunscreen formulation containing 3% compound (modified Diffey-Robson, PMMA plates); settings: 3% in formulation, before irradiation
Description: All synthesized compounds were formulated at 3% and their photoprotective efficacy, determined by spectrophotometric measurements using the modified Diffey-Robson method, was compared with that of the lead compound PBSA (used at 3% in the same formulation) and using the base without active as a control (Table 2).
The synthesized compounds were incorporated at a concentration of 3% in a typical oil-in-water sunscreen formulation, to evaluate the filtering parameters, and have the following ingredient composition:
INCI (International Nomenclature Cosmetic Ingredients): aqua, glycerin, Euxyl PE 9010, xanthan gum, Tribehenin PEG-20 Esters, cetearyl alcohol, dicaprylyl carbonate, PPG-26-Buteth-26 (and) PEG-40 Hydrogenated Castor Oil (and) water, C12-C15 Alkyl Benzoate, and Sodium hydroxide (sol. 10%).
As previously reported the protocol indicates to spread 32.5 mg of each formulation on 25 cm^2 PMMA plates with the fingers. Each formulation was tested in triplicate, and five measurements were recorded for each dish, following a 15–30 min incubation in the dark at room temperature. UV transmittance data was recorded using a UV-VIS spectrophotometer in the range 290–400 nm. The blank plate, SPF, UVA-PF and critical wavelength were obtained by SPF Calculator software (version 2.1), Shimadzu, Milan, Italy).

SMILES | % SPFeff (residual percentage of SPF in vitro) [1] [%] | % UVA-PFeff (residual percentage of UVA-PF) [1] [%] | SPF [1] | UVA/UVB [1] | UVAPF [1] | λc [1] [nm] | Dead (%) (Colo-38 cell line; Colo-38, 5 µM) | Early Apoptosis (%) (Colo-38 cell line; Colo-38, 5 µM) | Late Apoptosis (%) (Colo-38 cell line; Colo-38, 5 µM) | Dead (%) (Colo-38 cell line; Colo-38, 50 µM) | Early Apoptosis (%) (Colo-38 cell line; Colo-38, 50 µM) | total apoptosis (Colo-38 cell line) | ε (molar extinction coefficient) [2] | λmax [2] [nm] | SPF [3] | UVA/UVB [3] | UVAPF0 [3] | λc [3] [nm] | Dead (%) (Colo-38 cell line; Colo-38, 10 µM) | Early Apoptosis (%) (Colo-38 cell line; Colo-38, 10 µM) | also measured
O=C(/C=C/c1ccc(O)cc1)Nc1nc2ccccc2s1 [BZTcin2, (E)-N-(benzo[d]thiazol-2-yl)-3-(4-hydroxyphenyl)acrylamide] | 96.00 | 85.50 | 11.77 | 1.49 | 10.08 | 377 | 2.05 | 1.70 | 16.90 | 4.45 | 1.85 | over 30% | 32240.17 | 335.6 | 12.26 | 1.49 | 11.79 | 380 |  |  | 
O=C(/C=C/c1ccc(O)c(O)c1)Nc1nc2ccccc2s1 [BZTcin4, (E)-N-(benzo[d]thiazol-2-yl)-3-(3,4-dihydroxyphenyl)acrylamide] | 86.91 | 93.25 | 8.43 | 1.39 | 10.63 | 380 | 1.00 | 3.85 | 8.50 |  |  | does not induce apoptosis at any of the concentrations tested | 22387.64 | 347.7 | 9.70 | 1.39 | 11.40 | 380 | 1.35 | 3.20 | Late Apoptosis (%) (Colo-38 cell line; Colo-38, 10 µM): 8.00%
COc1ccc(/C=C/C(=O)Nc2nc3ccccc3s2)cc1O [BZTcin5, (E)-N-(benzo[d]thiazol-2-yl)-3-(3-hydroxy-4-methoxyphenyl)acrylamide] |  |  | 3.51 | 1.11 | 3.32 | 377 |  |  |  | 3.50 | 1.40 | > 20% | 20688.20 | 342.0 | 3.84 | 1.11 | 3.61 | 378 | 3.75 | 1.80 | Late Apoptosis (%) (Colo-38 cell line; Colo-38, 10 µM): 21.40%; Late Apoptosis (%) (Colo-38 cell line; Colo-38, 50 µM): 16.25%
O=C(N/N=C/c1ccc(O)cc1)c1nc2ccccc2s1 [BZTidr2, (E)-N′-(4-hydroxybenzylidene)benzo[d]thiazole-2-carbohydrazide] |  |  | 1.85 | 1.09 | 1.96 | 386 |  |  |  |  |  |  | 28637.64 | 335.3 | 1.85 | 1.09 | 1.96 | 386 |  |  | 
